Test results from patent publication US10808009B2, “Peptide conjugates” (BIONIZ, LLC, priority 2011, dated 2020).
One block for each substance: values may come before it. No end group written: not given here.

Columns and labels:
IL-6 = test: T1165 proliferation in the presence of IL-6 (Example 25); type: cell-based, human or mouse
Experimental: The BNZ130-1 polypeptide as presented in Table 2, above, is tested for its activity in inhibiting IL-6 activity. T1165 cells that are dependent on human or mouse IL-6 for their growth in vitro are selected. The cell line is cultured in the absence of IL-6, In the presence of IL-6, in the presence of BNZ130-1, and in the presence of IL-6 and BNZ130-1.

IL-15 = IL-15 (Homo sapiens, UniProt P40933); test: PT-18β proliferation assay (WST-1), IL-15; type: cell-based; settings: PT-18β cells, 1 nM IL-15, BNZ-γ from HEK293T supernatant 1:20 or 1:50, 2 days
Chain of IL-15 (P40933 49-162): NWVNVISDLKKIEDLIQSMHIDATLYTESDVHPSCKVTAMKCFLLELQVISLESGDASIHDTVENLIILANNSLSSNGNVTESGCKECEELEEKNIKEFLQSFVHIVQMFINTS
Text: (§1) For each of the six γc-cytokines, indicator cell lines: CTLL-2, a murine CD8 T cells line available from American Type Culture Collection, and PT-18, a murine mast cell line and its subclone PT-183, is transfected with human IL-2Rβ gene to make the cells responsive to IL-2 and IL-15 (Tagaya et al., 1996, EMBO J. 15:4928-39), and is used to quantitatively determine the γc-cytokine's growth-promoting activity (See Current protocols in Immunology from Wiley and Sons for a methodological reference). […] Once the appropriate doses of the cytokine that yield the 50% and 95% maximum response from the indicator cell line is determined, various concentrations (ranging from 1 pM to 10 μM) of the purified or synthesized custom derivative peptide is added to each well containing the cytokine and indicator cells. The reduction in light absorbance at 450 nm is used as an indicator of inhibition of cytokine-stimulated cellular proliferation. Typically, the cells are stimulated by the cytokines such that the absorbance of the well containing indicator cell line and the cytokine is between 2.0 and 3.0, which is reduced to a range of 0.1 to 0.5 by the addition of inhibitory peptides.
(§2) The growth-responses of the cells were determined 2 days after the introduction of BNZ-γ peptide and the cytokine using the WST-1 assay. […]

IL-9 = target: T1, IL-9 (Mus musculus, UniProt P15247); test: PT-18β proliferation assay (WST-1), IL-9; type: cell-based; settings: PT-18β cells, 1 nM IL-9, BNZ-γ from HEK293T supernatant 1:20 or 1:50, 2 days
T1 sequence (P15247 19-144): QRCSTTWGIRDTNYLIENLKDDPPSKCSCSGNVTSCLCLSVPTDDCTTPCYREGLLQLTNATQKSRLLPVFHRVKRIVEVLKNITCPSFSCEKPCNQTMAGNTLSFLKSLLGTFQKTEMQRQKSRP
Text: as §1, §2

IL-4 = target: T2, IL-4 (Mus musculus, UniProt P07750); test: PT-18β proliferation assay (WST-1), IL-4; type: cell-based; settings: PT-18β cells, 1 nM IL-4, BNZ-γ from HEK293T supernatant 1:20 or 1:50, 2 days
T2 sequence (P07750 21-140): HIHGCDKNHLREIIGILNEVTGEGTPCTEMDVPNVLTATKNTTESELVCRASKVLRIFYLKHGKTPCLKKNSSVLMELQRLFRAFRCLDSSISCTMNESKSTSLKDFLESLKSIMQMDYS
Text: as §1, §2

IL-3 = target: T3, IL-3 (Mus musculus, UniProt P01586); test: PT-18β proliferation assay (WST-1), IL-3 (non γc-cytokine control); type: cell-based; settings: PT-18β cells, 1 nM IL-3, BNZ-γ from HEK293T supernatant 1:20 or 1:50, 2 days
T3 sequence (P01586 27-166): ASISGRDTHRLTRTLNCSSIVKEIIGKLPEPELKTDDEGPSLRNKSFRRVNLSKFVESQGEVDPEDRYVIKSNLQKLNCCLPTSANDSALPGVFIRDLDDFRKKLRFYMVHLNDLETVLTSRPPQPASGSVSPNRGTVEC
Text: as §1, §2

IL-2 = test: PT-18 proliferation assay, IL-2 (FIG. 3A legend); type: cell-based
Experimental: The growth-responses of the cells were determined 2 days after the introduction of BNZ-γ peptide and the cytokine using the WST-1 assay. […] Cellular proliferation stimulated by IL-4, another γc-cytokine, was not affected by the by the addition of BNZ-γ peptide. Results for IL-3, IL-9, IL-15, and IL-4 are shown at FIG. 3A.

[1] = system: IL-15-mediated tyrosine-phosphorylation of STAT5; test: IL-15-mediated tyrosine phosphorylation of STAT5 in PT-18β cells (immunoblot); type: cell-based, murine; settings: PT-18β cells stimulated by IL-15, anti-phospho-STAT5 immunoblot
Text: In addition to stimulating cellular proliferation, binding of the γc-cytokines to their receptors causes a diverse array of intracellular events. (Rochman et al. 2009 Nat. Rev. Immunol. 9:480-90, Pesu et al. 2005 Immunol. Rev. 203:127-142.) Immediately after the cytokine binds to its receptor, a tyrosine kinase called Jak3 (Janus-kinase 3) is recruited to the receptor at the plasma membrane. This kinase phosphorylates the tyrosine residues of multiple proteins including the γc-subunit, STAT5 (Signal Transducer and Activator of Transcription 5) and subunits of the PI3 (Phosphatidylinositol 3) kinase. Among these, the phosphorylation of STAT5 has been implicated in many studies as being linked to the proliferation of cells initiated by the γc-cytokine. (Reviewed in Hennighausen and Robinson, 2008 Genes Dev. 22:711-21.) In accordance with these published data, whether or not the BNZ-γ peptide inhibits the tyrosine phosphorylation of STAT5 molecule in PT-18β cells stimulated by IL-15 was examined (results shown in FIG. 3C).
PT-18β cells were stimulated by IL-15 in the presence or absence of BNZ-γ peptide. Cytoplasmic proteins were extracted from the cells according to a conventional method as described in Tagaya et al. 1996 EMBO J. 15:4928-39. […]

γc-cytokines = test: Target cytokine spectrum within the γc-family (summary statements); type: cell-based
[2] = system: T-cells in HAM/TSP culture
[3] = HAM/TSP peripheral blood ex vivo culture, flow cytometry

Substance: LTHLIERSSRAVLQSLLRASRQ [BNZ130-1]
effect on T1165 survival (IL-6; Example 25, with or without IL-6): does not affect | antagonistic activity on T1165 proliferation in the presence of IL-6 (IL-6; Example 25, written in present tense): dose-dependent antagonistic activity

cellular proliferation stimulated by IL-4 (IL-4): not affected | growth-promoting activity of IL-3 (non γc-cytokine) (IL-3): not inhibited
Substance: I-K-E-F-L-Q-R-F-I-H-I-V-Q-S-I-I-N-T-S (IKEFLQRFIHIVQSIINTS) [BNZ-γ]
growth-promoting activity of IL-15 (IL-15): significantly (p<0.01 Student's T test) reduced | growth-promoting activity of IL-9 (IL-9): significantly (p<0.01 Student's T test) reduced | IL-2 activity in PT-18 proliferation assay (IL-2): inhibition | tyrosine phosphorylation of STAT5 [1]: markedly reduced | γc-cytokines not inhibited (γc-cytokines): IL-4, IL-7 and IL-21 | γc-cytokines inhibited (γc-cytokines; BNZ132-2 and BNZ132-3 data not shown): IL-2, IL-15 and IL-9 | percent of live cells by Guava staining [2]: not impacted | concentration at which spontaneous proliferation of T-cells is inhibited ([2]; HAM/TSP patient PBMC, 3, 4 and 6 days, 3H-thymidine): about 1 ug/ml | population of CD4+CD25+ cells [2, 3]: diminished | population of CD4+Ki67 cells [2, 3]: reduced
